Results published in patent publication US7067486B2, “Acetylcholinesterase-derived peptides and uses thereof” (priority 1999, dated 2006).
Marks after values point to notes of the source that are not given here.

Legend:
Assay type in all cases: cell-based, human
CD34^+ cells [1] = experiment: Cell phenotyping of CD34+ liquid cultures by flow cytometry (CD34, CD33, CD15, CD41); settings: for MK (CD41^+) fold expansion / Myeloid (CD33^+) fold expansion: 2-week primary cultures of CD34+ cells from 1 to 3 individuals, ± SEM where noted; for CD33^+ (early myeloids) / CD33^+ and CD15^+ (total myeloids) / CD34^+ (early progenitors) / CD41^+ (megakaryocytes): day 14, seeded at 50,000 cells/well, ARP 2 nM, cortisol 1.2 μM, ASP 2 nM, SCF 50 ng/ml, AS1 20 pM, PBAN 2 nM
From the text: Cell Source: UCB was collected, following informed consent of the parents and with the approval of the Sourasky Medical Center Ethics Committee, as previously described [Grisaru et al. (1999a) Am. J. Obstet. Gynecol, 180, 1240–1243]. Following 1:1 (v/v) dilution in Iscove's modified Dulbecco medium (IMDM, Beit Haemek, Israel), mononuclear cells were separated using 3% gelatin (Difco, Detroit, Mich.) and Ficoll-Hypaque gradients (<1.077 g/ml; Pharmacia, Uppsala, Sweden) [Pick et al. (1998) Br. J. Haematol. 103, 639–50]. CD34^+ cells were enriched using CD34 immunoglobulin-coated magnetic beads (CD34 progenitor cell selection system, Dynal, Norway).CD34^+ cells analysis was performed by flow cytometry (Becton Dickinson Immunocytochemistry System Inc., San Jose, Calif.), using CD34-PE (Becton Dickinson Immunocytometry System, Inc.) and CD45-FITC (Dako, Glostrup, Denmark) monoclonal antibodies. […] Liquid Cultures: UCB CD34^+ cells were set for liquid cultures at a concentration of 10^5/mL in IMDM, containing 10% autologous plasma, 2 mM L-glutamine (Sigma Chemical Co., St Louis, Mo.), penicillin ([…]), streptomycin ([…]), amphotericin B (2×10^−5 M) (Sigma Chemical Co.), and heparin (20 IU/mL, Gibco, Grand Island, N.Y.), all in a fully humidified atmosphere at 37° C. and 5% CO2. The following elements were added where noted: • 1. […] Endothlial Growth factors: Epidermal growth factor (EGF 10 ng/ml, Sigma Chemical Co.), basic Fibroblast growth factor (bFGF 20 ng/ml, Sigma Chemical Co.) incubated in a serum free medium (SFM) for 48 hr. • 3. Stress mimicking conditions: Hydrocortisone sodium succinate (Abic Ltd., Netanya, Israel) at concentrations equivalent to normal, intermediate and stress serum cortisol levels (0.1, 0.6 and 1.2 μM, respectively (De Vroede et al., Arch. Des. […] Antisense oligonucleotides: 3′-terminal 2′-O-Methylated 15- and 20-mer oligodeoxynucleotides in the antisense (AS) orientation, targeted against the common sequence domain in human AChEmRNA and BuChE mRNA, as control, […], as detailed elsewhere [Grisaru et al. (1999b) Mol. Cell. Biol. 19, 788–95]. • 5. AChE C-terminal peptides: The following C-terminal peptides of the AChE synaptic (ASP, also denoted SEQ ID: No. 2) and readthrough (ARP, also denoted SEQ ID: No. 1) isoforms were synthesized using a 433A peptide synthesizer (PE Applied Biosystems, Inc., Norwalk, Conn.). • ASP: 1-[…]-40, also denoted as SEQ ID: No. 2. • ARP: 1-[…]-26, also denoted as SEQ ID: No. 1.
(§1) Culture Analyses: Twenty-four hr liquid cultures served for cytochemical staining, in situ hybridization, and cell proliferation assay by 5-bromo-2′-deoxy-Uridine (BrdU) incorporation [Grisaru et al. (1999b) id ibid.]. Twenty-eight day liquid cultures were sampled every 6–8 days for viable cell counting (using trypan blue dye exclusion), cell phenotyping (CD34^+, CD33^+ and CD41^+ quantification using flow cytometry, with CD34-PE, CD33-FITC (Immunotech/Coulter, Hialeah, Fla.), CD41-FITC (Immunoquality Products, Groningen, Netherlands) and CD45-FITC monoclonal antibodies), and growth of progenitor colony (granulocyte-macrophage and megakaryocytic), using previously described techniques (Pick et al. (1998) id ibid.). […] 11, 1049–57]. Nuclear staining w with 4′,6-diamidino-2- phenylindole [DAPI, see e.g., Peterson et al. (1999) Genetics 152, 427–439].

CD34^+ cells [2] = experiment: BrdU incorporation into CD34+ cells (cell proliferation); settings: GM-CSF alone, 16 hr
From the text: Cell Source: UCB was collected, following informed consent of the parents and with the approval of the Sourasky Medical Center Ethics Committee, as previously described [Grisaru et al. (1999a) Am. J. Obstet. Gynecol, 180, 1240–1243]. Following 1:1 (v/v) dilution in Iscove's modified Dulbecco medium (IMDM, Beit Haemek, Israel), mononuclear cells were separated using 3% gelatin (Difco, Detroit, Mich.) and Ficoll-Hypaque gradients (<1.077 g/ml; Pharmacia, Uppsala, Sweden) [Pick et al. (1998) Br. J. Haematol. 103, 639–50]. CD34^+ cells were enriched using CD34 immunoglobulin-coated magnetic beads (CD34 progenitor cell selection system, Dynal, Norway).CD34^+ cells analysis was performed by flow cytometry (Becton Dickinson Immunocytochemistry System Inc., San Jose, Calif.), using CD34-PE (Becton Dickinson Immunocytometry System, Inc.) and CD45-FITC (Dako, Glostrup, Denmark) monoclonal antibodies. […] Liquid Cultures: UCB CD34^+ cells were set for liquid cultures at a concentration of 10^5/mL in IMDM, containing 10% autologous plasma, 2 mM L-glutamine (Sigma Chemical Co., St Louis, Mo.), penicillin ([…]), streptomycin ([…]), amphotericin B (2×10^−5 M) (Sigma Chemical Co.), and heparin (20 IU/mL, Gibco, Grand Island, N.Y.), all in a fully humidified atmosphere at 37° C. and 5% CO2. The following elements were added where noted: • 1. Hematopoietic growth factors: Interleukin 3 (IL3, 5 ng/mL, Immunex, Seattle, Wash.), interleukin 6 (IL6, 50 ng/mL, R&D Systems, Minneapolis, Minn.), TPO (1 ng/mL, R&D Systems), stem cell factor (SCF, 10 ng/mL, R&D Systems), FLT-3 ligand (FLT3, 50 ng/mL, R&D Systems), granulocyte-macrophage colony stimulating factor (GM-CSF, 50 ng/mL, Biogenesis Ltd, Bournemouth, UK) and combinations of the above, for 24 hr to 28 days (supplemented every 4 days). • 2. […] AChE C-terminal peptides: The following C-terminal peptides of the AChE synaptic (ASP, also denoted SEQ ID: No. 2) and readthrough (ARP, also denoted SEQ ID: No. 1) isoforms were synthesized using a 433A peptide synthesizer (PE Applied Biosystems, Inc., Norwalk, Conn.). • ASP: 1-[…]-40, also denoted as SEQ ID: No. 2. • ARP: 1-[…]-26, also denoted as SEQ ID: No. 1.
[…] Twenty-eight day liquid cultures were sampled every 6–8 days for viable cell counting (using trypan blue dye exclusion), cell phenotyping (CD34^+, CD33^+ and CD41^+ quantification using flow cytometry, with CD34-PE, CD33-FITC (Immunotech/Coulter, Hialeah, Fla.), CD41-FITC (Immunoquality Products, Groningen, Netherlands) and CD45-FITC monoclonal antibodies), and growth of progenitor colony (granulocyte-macrophage and megakaryocytic), using previously described techniques (Pick et al. (1998) id ibid.). […]

[3] = system: AChEmRNA transcripts (S, E, R); experiment: In situ hybridization of AChEmRNA transcripts in cultured CD34+ cells, confocal quantification; settings: 24 hr
Protocol: In Situ Hybridization: In situ hybridization procedures, were performed on cultured cells and human fetal tissues, as detailed elsewhere [Grisaru et al. (1999b) id ibid; Kaufer et al. (1998) id ibid.]. Cultured cells were centrifuged at 300× g and fixed, using 4% paraformaldehyde, to collagen-coated cover slips placed on the bottom of the culture well. […] 5′-Biotinylated, 2′-O-methylated AChEcRNA probes complementary to 3′-alternative human ACHE exons were employed. Detection and quantification of the various AChEmRNA transcripts in fetal tissues were performed as previously described [Grisaru et al. (1999b) id ibid.]. Confocal microscopy scans of the culture-derived cells were obtained using a MRC-1024 Bio-Rad confocal microscope (Hemel Hempsted Herts., UK). A projection was built from each cell image and specific criteria were set for size and intensity of the Fagt Red fluorescence. […]
The assumption that hematopoietic ACHE gene expression is modulated under stress was tested in CD34^+ cells cultured for 24 hr with increasing doses of hydrocortisone. Treated cells were subjected to cytochemical staining for AChE activity as well as to high resolution in situ hybridization followed by confocal microscopic quantification of labeling density. […] Because each cRNA probe has its own characteristic hybridization affinity, each transcript was quantified separately. […]

CD34^+ cells [4] = experiment: Viable cell expansion in CD34+ liquid cultures (trypan blue exclusion); settings: day 14; seeded at 50,000 cells/well; ARP 2 nM, cortisol 1.2 μM, ASP 2 nM, SCF 50 ng/ml, AS1 20 pM, PBAN 2 nM
From the text: Cell Source: UCB was collected, following informed consent of the parents and with the approval of the Sourasky Medical Center Ethics Committee, as previously described [Grisaru et al. (1999a) Am. J. Obstet. Gynecol, 180, 1240–1243]. Following 1:1 (v/v) dilution in Iscove's modified Dulbecco medium (IMDM, Beit Haemek, Israel), mononuclear cells were separated using 3% gelatin (Difco, Detroit, Mich.) and Ficoll-Hypaque gradients (<1.077 g/ml; Pharmacia, Uppsala, Sweden) [Pick et al. (1998) Br. J. Haematol. 103, 639–50]. CD34^+ cells were enriched using CD34 immunoglobulin-coated magnetic beads (CD34 progenitor cell selection system, Dynal, Norway).CD34^+ cells analysis was performed by flow cytometry (Becton Dickinson Immunocytochemistry System Inc., San Jose, Calif.), using CD34-PE (Becton Dickinson Immunocytometry System, Inc.) and CD45-FITC (Dako, Glostrup, Denmark) monoclonal antibodies. […] Liquid Cultures: UCB CD34^+ cells were set for liquid cultures at a concentration of 10^5/mL in IMDM, containing 10% autologous plasma, 2 mM L-glutamine (Sigma Chemical Co., St Louis, Mo.), penicillin ([…]), streptomycin ([…]), amphotericin B (2×10^−5 M) (Sigma Chemical Co.), and heparin (20 IU/mL, Gibco, Grand Island, N.Y.), all in a fully humidified atmosphere at 37° C. and 5% CO2. The following elements were added where noted: • 1. Hematopoietic growth factors: Interleukin 3 (IL3, 5 ng/mL, Immunex, Seattle, Wash.), interleukin 6 (IL6, 50 ng/mL, R&D Systems, Minneapolis, Minn.), TPO (1 ng/mL, R&D Systems), stem cell factor (SCF, 10 ng/mL, R&D Systems), FLT-3 ligand (FLT3, 50 ng/mL, R&D Systems), granulocyte-macrophage colony stimulating factor (GM-CSF, 50 ng/mL, Biogenesis Ltd, Bournemouth, UK) and combinations of the above, for 24 hr to 28 days (supplemented every 4 days). • 2. Endothlial Growth factors: Epidermal growth factor (EGF 10 ng/ml, Sigma Chemical Co.), basic Fibroblast growth factor (bFGF 20 ng/ml, Sigma Chemical Co.) incubated in a serum free medium (SFM) for 48 hr. • 3. […] AChE C-terminal peptides: The following C-terminal peptides of the AChE synaptic (ASP, also denoted SEQ ID: No. 2) and readthrough (ARP, also denoted SEQ ID: No. 1) isoforms were synthesized using a 433A peptide synthesizer (PE Applied Biosystems, Inc., Norwalk, Conn.). • ASP: 1-[…]-40, also denoted as SEQ ID: No. 2. • ARP: 1-[…]-26, also denoted as SEQ ID: No. 1. […]

AChE = experiment: Cytochemical staining of AChE catalytic activity in CD34+ cells; settings: 24 hr
From the text: as §1

[5] = 1.2 μM hydrocortisone (stress-associated level)

Row | Compound | MK (CD41^+) fold expansion (CD34^+ cells [1]) [fold] | Myeloid (CD33^+) fold expansion (CD34^+ cells [1]) [fold] | BrdU incorporation into CD34+ cells (CD34^+ cells [2]) | selective increase in "readthrough" AChE-R mRNA transcript ([3]; 0.60 μM hydrocortisone, above level at 0.10 μM, CD34+ cells) [%] | labeling of all 3 AChEmRNA transcripts [3, 5] | CD33^+ (early myeloids) (CD34^+ cells [1]) [cells per culture × 10^−3] | CD33^+ and CD15^+ (total myeloids) (CD34^+ cells [1]) [cells per culture × 10^−3] | CD34^+ (early progenitors) (CD34^+ cells [1]) [cells per culture × 10^−3] | CD41^+ (megakaryocytes) (CD34^+ cells [1]) | Total viable cells (CD34^+ cells [4]) [cells per culture × 10^−3] | enzyme activity of CD34+ cells (AChE; 0.60 μM hydrocortisone) | catalytic activity of the stem cell-associated enzyme (AChE; [5])
1 | GM-CSF | 14.50 | 1.35 | increased |  |  |  |  |  |  |  |  | 
2 | C[C@]12CCC(=O)C=C1CC[C@@H]1[C@@H]2[C@@H](O)C[C@@]2(C)[C@H]1CC[C@]2(O)C(=O)COC(=O)CCC(=O)[O-].[Na+] [hydrocortisone, Hydrocortisone sodium succinate, reference compound] |  |  |  | 40 | enhanced | 45.0 | 73.0 | 13.0 | 10.1^b cells per culture × 10^−3 | 80.0 | no change | intensified
3 | SCF | 0.30 ± 0.21 | 3.90 |  |  |  | 69.0 | 72.0 | 6.3 | 2.6^b cells per culture × 10^−3 | 118.0 |  | 
